Results on two compounds are retold here after patent US9867811B2, “Method of treating atherosclerosis in high triglyceride subjects” (NOVARTIS AG, priority 2011, dated 2018).

Like-named read-outs stand apart in the source and are kept apart here.

In the experiment the target is T1, CETP (Homo sapiens, UniProt P11597).
T1 construct: Human serum samples were obtained from the Novartis Institutes for BioMedical Research donor program; tissue Novartis donor program; Bioreclamation (Westbury, N.Y.); Uniglobe (Reseda, Calif.); host or cells: pooled human donor serum
T1 sequence (P11597 18-493): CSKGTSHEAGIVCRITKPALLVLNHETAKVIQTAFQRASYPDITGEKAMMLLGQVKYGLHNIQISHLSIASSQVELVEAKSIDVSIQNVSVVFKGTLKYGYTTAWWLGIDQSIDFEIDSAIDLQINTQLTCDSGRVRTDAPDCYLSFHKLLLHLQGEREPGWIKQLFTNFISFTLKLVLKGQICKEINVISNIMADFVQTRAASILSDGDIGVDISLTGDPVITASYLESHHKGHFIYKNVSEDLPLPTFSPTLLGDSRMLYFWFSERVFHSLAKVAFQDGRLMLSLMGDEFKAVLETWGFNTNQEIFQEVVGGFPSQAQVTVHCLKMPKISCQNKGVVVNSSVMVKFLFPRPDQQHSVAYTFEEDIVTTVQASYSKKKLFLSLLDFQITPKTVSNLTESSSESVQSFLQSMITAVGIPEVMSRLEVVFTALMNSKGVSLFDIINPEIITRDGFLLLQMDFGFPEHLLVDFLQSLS
In words: In vitro CETP activity assay in human plasma (serum pools of differing triglyceride level). The settings on record: for IC50: human serum pool. In kind it is biochemical. The procedure:
Pro-apoA-1 containing microemulsion as a donor particle was prepared following previous report (J. Biol. Chem., 280:14918-22). Glyceryl trioleate (500 ug, Sigma-Aldrich, Cat. No. T7140), 3-sn-phosphatidylcholine (4680 ug, Sigma, Cat. No. P2772), and cholesteryl BODIPY FL 012 (2 mg, Invitrogen, CA, Cat. No. C-3927MP) were dissolved in 1.5 mL of chloroform. The solution was evaporated, and residual solvent was removed under vacuum for more than 1 hr at room temperature. The dried lipid mixture was dissolved in 7 ml of the assay buffer (50 mM Tris-HCl (pH 7.4) containing 150 mM NaCl and 2 mM EDTA) and sonicated in water bath for 1 hr. The solution was split into two tubes of 3.5 ml each. Each tube was sonicated at 50° C. with a microtip (MICROSON™ ULTRASONIC CELL DISRUPTOR, Misonix, Farmingdale, N.Y.) at output power 006 for 10 min (every other 25 seconds). The solution was cooled to 40° C. and 400 ug of pro-apoA-1 was added to each tube (total volume of 4 mL). Then, the solution was sonicated at output power 004 for 20 min (every other 30 seconds). Final Concentration: Glyceryl Tiroleate: 62.5 ug/ml, PC: 585 ug/ml, Bodipy CE: 250 ug/ml, Pro-apoA-1: 100 ug/ml. Centrifuge solution at 5200×g for 5 minutes and store the supernatant at 4′C.
Human serum samples were obtained from the Novartis Institutes for BioMedical Research donor program (normal triglyceride samples) or purchased from Bioreclamation (Westbury, N.Y.) or Uniglobe (Reseda, Calif.). General requirements for human serum donors included: male gender, 20-55 years of age, not currently on a lipid altering medication, non-fasting at time of blood collection, and a total cholesterol level between 200-300 mg/dL. Donor samples were selected primarily on the basis of serum triglyceride level, using the following classifications: normal triglycerides (<150 mg/dL); high triglycerides (300-500 mg/dL); and very high triglycerides (750-1200 mg/dL). A total of 4 individual serum samples from each classification were used in these experiments. For each of the 3 triglyceride classifications, two serum sample pools were prepared. The mean plasma triglyceride concentrations (mg/dL) for the pools were: Normal: 101.35; High: 347.5; Very high 1, 868.45; Very high 2, 1269.35.
Donor solution is prepared by a dilution of donor microemulsion with assay buffer (1.7 ul donor+8.3 ul Buffer). Human serum (25 μL), assay buffer (14 μL) and 50× test compound dissolved in 100% dimethylsulfoxide (1 μL) are added to each well of 384 well black, clear-bottom plate (NUNC. Thermo Fisher #242764). The reaction is started by the addition of donor solution (10 μL) into each well. Fluorescence intensities are measured every 10 min at 37° C. with excitation wave length of 485 nm and emission wavelength of 515 nm over an 80 minute period, using a SpectraMax M5 from Molecular Devices (Sunnyvale, Calif.). The CETP activity (RFU/min) is defined as the change of fluorescence intensity from 40 to 70 min. Percent CETP inhibition is calculated as follows: ((100% Act−Wellcmpnd)/100% Act))*100. IC50 values were calculated with GraphPad Prism 5 software.

`COc1cc(F)c(C(C)C)cc1-c1ccc(C(F)(F)F)cc1CN1C(=O)O[C@H](c2cc(C(F)(F)F)cc(C(F)(F)F)c2)[C@@H]1C` [Anacetrapib, reference compound]: the “Retention of CETP inhibitory activity in plasma from hypertriglyceridemic human subjects” value (in vitro, plasma from subjects with elevated triglycerides) was “does not retain its potency”.

Turning to `CC[C@@H]1C[C@H](N(Cc2cc(C(F)(F)F)cc(C(F)(F)F)c2)c2ncc(-c3cnn(C)c3)cn2)C[C@H](CC)N1C(=O)O[C@H]1CC[C@H](C(=O)O)CC1` [Example 8], the IC50 is, setting by setting: (TG = 101.35 mg/dL (normal), read-out: CETP IC50 (nM) TG = 101.35 mg/dL) 88.4 nM; (TG = 374.5 mg/dL (high), read-out: CETP IC50 (nM) TG = 374.5 mg/dL) 51.9 nM; (TG = 1269.35 mg/dL (very high 2), read-out: CETP IC50 (nM) TG = 1269.35 mg/dL) 61.4 nM.
